Laboratory results as given in patent US20240360107A1, “AN EIF4A INHIBITOR WITH A NOVEL MECHANISM OF ACTION” (ARIZONA BOARD OF REGENTS ON BEHALF OF THE UNIVERSITY OF …, priority 2021, published 2024).
“Also recorded” adds a separate entry of the source.

Tests used:
Type in all cases: biochemical
[1] = test system: cap-dependent translation of firefly luciferase; assay: in vitro translation of bicistronic luciferase reporter in rabbit reticulocyte lysate, firefly luciferase; details: Cycloheximide 600 μM, Silvestrol 100 nM
Text: A bicistronic luciferase reporter ([…]) (FIG. 7B, top) was programmed into rabbit reticulocyte lysates, cellular extracts capable of performing both cap-dependent and Hepatitis C virus (HCV) internal ribosomal entry site (IRES)-mediated translation. eIF4A is the enzymatic driver of cap-dependent translation and is not involved in translation through HCV IRES. Compounds that inhibit eIF4A should inhibit cap-dependent translation of firefly (FF) luciferase while leaving IRES-mediated translation of Renilla (Ren) luciferase relatively unaffected. The inhibitory activities of cycloheximide, silvestrol, and 28 were assessed in this in vitro translation assay (FIG. 7B, bottom). […] The ability of compound 28 to preferentially target cap-dependent translation in a similar manner as silvestrol provides promising evidence that 28 inhibits eIF4A and not other proteins in the general translational machinery.
The dual-luciferase reporter plasmid pSP/(CAG)33/FF/HCV/Ren-pA51 was linearized with BamHI and subsequently in vitro transcribed using the Promega mMessage mMachine SP6 transcription kit, according to manufacturer's specifications. RNA was precipitated with LiCI and resuspended in H2O for use in in vitro translation experiments. Rabbit reticulocyte lysate (RRL) (nuclease-treated, Promega) was used to assess inhibitory effects of 28 on translation of the dual-reporter. Briefly, a reaction consisting of 50% RRL, 30 ng/μL reporter RNA, 10 μM Amino Acid Mixture Minus Methionine, 10 μM Amino Acid Mixture Minus Leucine, […], 1 U/μL RNAseOut (Thermo), and drug (final DMSO concentration 1%) were incubated at 30° C. for 90 minutes. The reaction was quenched with 50 μL 1× Passive Lysis Buffer (Promega), 10 μL of the mix was transferred to a 96-well white plate (Cellstar), and the Dual-Reporter Luciferase Assay System (Promega) was used to generate luminescence according to the manufacturer's instructions. Luminescence was detected using a plate reader (BioTek HT Synergy).

eIF4A R110L mutant = molecular target: T1, eIF4A R110L mutant (Homo sapiens, UniProt P60842, R110L); assay: malachite green ATPase assay, eIF4A mutant
T1 construct: 6xHis with TEV protease site (N, cleaved yes); made in house; host or cells: E. coli BL21-CodonPlus
T1 sequence (P60842 whole entry R110L): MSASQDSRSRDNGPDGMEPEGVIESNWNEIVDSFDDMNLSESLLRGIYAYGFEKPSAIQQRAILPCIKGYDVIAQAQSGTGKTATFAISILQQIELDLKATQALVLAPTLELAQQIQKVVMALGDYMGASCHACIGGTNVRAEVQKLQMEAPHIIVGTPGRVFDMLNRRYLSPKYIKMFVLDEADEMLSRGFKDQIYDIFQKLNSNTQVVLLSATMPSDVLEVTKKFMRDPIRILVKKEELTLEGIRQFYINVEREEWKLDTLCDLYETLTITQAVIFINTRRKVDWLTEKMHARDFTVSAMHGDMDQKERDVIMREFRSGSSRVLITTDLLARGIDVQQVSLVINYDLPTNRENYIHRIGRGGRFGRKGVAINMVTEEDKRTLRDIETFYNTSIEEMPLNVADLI
Procedure: (§1) Furthermore, T158 is predicted to form a hydrogen bond to the […] of the 6-nitro quinoline substitution of compound 28. The ability of the 6-nitro group to form two strong interactions with the binding pocket of eIF4A is the most likely explanation for why this substitution afforded 28 such a large gain in potency for compound 28 compared to other analogs in the inhibitor series. Mutagenesis and recombinant production of mutant eIF4A protein was performed to confirm the docking pose and predicted interactions between compound 28 and its eIF4A binding pocket (FIG. 6D).
(§2) ATPase assay. Recombinant WT or mutant eIF4A was added to a clear bottom 384 well plate (Greiner) in ATPase buffer (20 mM Tris pH 7.4, 80 mM KCl, 2.5 mM MgCl2, 1 mM DTT, 1% glycerol). Compounds were added and the plate was incubated at 37° C. for 20 min. ATP/RNA solution was added to afford a 20 μL per well reaction volume with 750 nM eIF4A, 250 μM ATP, and 0.25 mg/mL Yeast RNA (Sigma) for the initial screen and dose responses, and varying concentrations of ATP and RNA for the kinetic assays. The plate was incubated for 4 h at 37° C. for the initial screen and dose responses, and at seven time points (1 hour-7 hours) for kinetic assays. 0.04% v/v (final concentration) Tween-20 was added to a Malachite Green solution, and the Malachite Green (40 μL per well) was added. The solution was incubated for 5 minutes at room temperature and Absorbance at 660 nm was read on a SpectraMax iD5 plate reader (Molecular Devices).

eIF4A T158V mutant = molecular target: T2, eIF4A T158V mutant (Homo sapiens, UniProt P60842, T158V); assay: malachite green ATPase assay, eIF4A mutant
T2 construct: 6xHis with TEV protease site (N, cleaved yes); made in house; host or cells: E. coli BL21-CodonPlus
T2 sequence (P60842 whole entry T158V): as the sequence (P60842 whole entry R110L) above, with L110R, T158V counted along it
Procedure: as §1, §2

eIF4A R110K mutant = molecular target: T3, eIF4A R110K mutant (Homo sapiens, UniProt P60842, R110K); assay: malachite green ATPase assay, eIF4A mutant
T3 construct: 6xHis with TEV protease site (N, cleaved yes); made in house; host or cells: E. coli BL21-CodonPlus
T3 sequence (P60842 whole entry R110K): as the sequence (P60842 whole entry R110L) above, with L110K counted along it
Procedure: as §1, §2

`CCCCc1ccc(-c2ccc(-c3cc(C(=O)O)c4cc([N+](=O)[O-])ccc4n3)o2)cc1` [Compound 28, 2-(5-(4-butylphenyl)furan-2-yl)-6-nitroquinoline-4-carboxylic acid] was tested, and the “effect on cap-dependent translation (firefly luciferase)” value [1] was “inhibit cap-dependent translation of firefly luciferase; also recorded: inhibits cap-dependent translation”, the “potency against eIF4A mutant in ATPase assay” value (“potency against eIF4A mutant” for short) (eIF4A R110L mutant) was “lost all potency” and the “potency against eIF4A mutant” value (eIF4A T158V mutant) was “lost all potency”. The “potency against eIF4A mutant” value (eIF4A R110K mutant) was “remained moderately potent”.
